According to patent US20240415809A1, “PHARMACEUTICAL COMBINATIONS” (ZYDUS LIFESCIENCES LIMITED, priority 2021, published 2024):

Tests used:
Type in all cases: in vivo
[1] = system: DSS induced ulcerative colitis in C57 mice; assay: Apremilast and Rifaximin alone and as fixed dose combination (FDC) in DSS induced ulcerative colitis in C57 mice (Example 8); details: for % change in DAI vs DSS vehicle control / % change in bleeding score vs DSS vehicle control / The rectal bleeding score, Day-6 / The disease activity index (DAI) score, Day-6: Day-6, Rifaximin 102.8 mg/kg p.o. BID, Apremilast 2.1 mg/kg p.o. BID, alone or combined; for The disease activity index (DAI) score, Day-6: six days, 2.5% DSS; for improvement in disease activity index (DAI) score / improvement in rectal bleeding: Example 8, Apremilast equivalent to 10 mg, Rifaximin equivalent to 500 mg human dose
Method: In this study, we have used Apremilast which is equivalent to 10 mg of human dose and Rifaximin which is equivalent to 500 mg of human dose in animal model, which is DSS (Dextran sulfate sodium) induced ulcerative colitis in C57 mice (Br J Pharmacol. 2019 July; 176 (13): 2209-2226. doi: 10.1111/bph.14667. Epub 2019 May 17). The colitis induced by
C57 mice of 9-10 weeks age were used for this study. On the day of study initiation (day-0) animals were randomized based on their body weight in to different treatment groups as below:
On day-0 animals were randomized based on body weight and from the same day onwards animals were administered with 2.5% DSS in RO water along with the test compounds till day-6. The test compounds were formulated in Tween 80 and 0.5% Na. CMC in (0.5:99.50%) ratio and oral administration was done twice a day for six days. During the duration of the experiment, a disease activity index (DAI) score was assessed to evaluate the clinical progression of ulcerative colitis.
The DAI was calculated by grading on a scale of 0-5 using the following parameters: loss of body weight (0=normal; 1=0-5%; 2=6-10%; 3=11-15%; 4=16-20%, 5=>20%), stool consistency (0=normal; 1=soft stools; 2=loose stools; 3=watery diarrhea) and rectal bleeding (0=none; 2=presence of hemoccult; 4=severe bleeding). (Ref: Cytokine 2014, 66, 30-39).
(§1) On the day of termination (Day-6), DAI score was assessed followed by nonfasted blood collection. Then animals were sacrificed and relevant tissues were collected in 10% formalin for histological analysis or snap frozen in liquid nitrogen for other assays.
(§2) With the help of MS Excel, percent change vs disease control (DSS vehicle control) in various parameters were calculated and statistical analysis was performed using graph pad prism software.

[2] = system: DSS induced ulcerative colitis in C57 mice; assay: Apremilast and Rifaximin alone and in combination in DSS induced ulcerative colitis in C57 mice (Example 7); details: for % change in DAI vs DSS vehicle control / % change in bleeding score vs DSS vehicle control / The rectal bleeding score, Day-6 / The disease activity index (DAI) score, Day-6: Day-6, Rifaximin 19 mg/kg p.o., Apremilast 12.5 mg/kg p.o., alone or combined, once a day for six days; for The disease activity index (DAI) score, Day-6: 2.5% DSS; for improvement in disease activity index (DAI) score: Example 7, Apremilast human equivalent mice dose, low dose of Rifaximin
Source text: (§3) In this study, we have used human equivalent mice dose of Apremilast and very ( 1/18th-fold) low dose of Rifaximin in animal model, which is DSS (Dextran sulfate sodium) induced ulcerative colitis in C57 mice (Br J Pharmacol. 2019 July; 176 (13): 2209-2226. doi: 10.1111/bph.14667. Epub 2019 May 17). The colitis induced by DSS, presents good reproducibility and also mimics clinical symptoms, inflammatory markers and histopathological features which is similar to IBD in humans (Cell Mol Gastroenterol Hepatol. 2015 Mar. 1; 1 (2): 154-170. doi: 10.1016/j.jcmgh.2015.01.006., Arq Gastroenterol. 2014 April-June; 51 (2): 107-12. doi: 10.1590/s0004-28032014000200007. PMID: 25003261).
(§4) C57 mice of 10-12 weeks age were used for this study. On the day of study initiation (day-0) animals were randomized based on their body weight in to different treatment groups as below:
(§5) On day-0 animals were randomized based on body weight and from the same day onwards animals were administered with 2.5% DSS in RO water along with the test compounds till day-6.
(§6) The test compounds were formulated in Tween 80 and 0.5% Na. CMC in (0.5:99.50%) ratio and oral administration was done once a day for six days. During the duration of the experiment, a disease activity index (DAI) score was assessed to evaluate the clinical progression of ulcerative colitis. The DAI was calculated by grading on a scale of 0-5 using the following parameters: loss of body weight (0=normal; 1=0-5%; 2=6-10%; 3=11-15%; 4=16-20%, 5=>20%), stool consistency (0=normal; 1=soft stools; 2=loose stools; 3=watery diarrhea) and rectal bleeding (0=none; 2=presence of hemoccult; 4=severe bleeding). (Ref: Cytokine 2014, 66, 30-39).
as §1, §2

[3] = system: DSS induced ulcerative colitis in C57 mice; assay: ADD ON effect of FDC with Mesalamine in DSS induced ulcerative colitis in C57 mice (Example 10)
Method: as §3, with “To study the ADD ON effect of FDC (combination” for “In this study, we have used human equivalent mice dose”, “Apremilast equivalent to 15 mg” for “Apremilast”, “Rifaximin equivalent to 500 mg of human dose) with mesalamine equivalent to 800 mg of human” for “very ( 1/18th-fold) low”, “dose” for “dose of Rifaximin”
as §4, §5
as §6, with “twice” for “once”
On the day of termination (Day-6), DAI score was assessed followed by nonfasted blood collection. Then animals were sacrificed, colon length was measured and then collected in 10% formalin for histological analysis or snap frozen in liquid nitrogen for other assays.
With the help of MS Excel, percent change vs disease control (DSS vehicle control) in various parameters were calculated and statistical analysis was performed using graph pad prism software. Percentage improvement of colon length was calculated by calculating the decrease in colon length due to disease from water vehicle control group and then improvement in colon length against DSS vehicle control group by considering the colon length of water vehicle control group as 100%.

[4] = Day-6, Mesalamine 164.4 mg/kg p.o. BID, FDC = Rifaximin 102.8 mg/kg + Apremilast 3.1 mg/kg p.o. BID

| SMILES | % change in DAI vs DSS vehicle control [1] | % change in bleeding score vs DSS vehicle control [1] | The rectal bleeding score, Day-6 [1] | The disease activity index (DAI) score, Day-6 [1] | improvement in disease activity index (DAI) score [1] | improvement in rectal bleeding [1] | % change in DAI vs DSS vehicle control [2] | % change in bleeding score vs DSS vehicle control [2] | The rectal bleeding score, Day-6 [2] | The disease activity index (DAI) score, Day-6 [2] | improvement in disease activity index (DAI) score [2] | % change in DAI vs DSS vehicle control [3, 4] | % improvement in colon length vs DSS vehicle control [3, 4] | The Colon length, Day-6 [3, 4] | The disease activity index (DAI) score, Day-6 ([3]; Day-6, Mesalamine 164.4 mg/kg p.o. BID, FDC = Rifaximin 102.8 mg/kg + Apremilast 3.1 mg/kg p.o. BID, six days) | improvement in disease activity index (DAI) score ([3]; Mesalamine equivalent to 800 mg, FDC = Apremilast equivalent to 15 mg and Rifaximin equivalent to 500 mg of human dose) |
| --- | --- | --- | --- | --- | --- | --- | --- | --- | --- | --- | --- | --- | --- | --- | --- | --- |
| CCOc1cc(C(CS(C)(=O)=O)N2C(=O)c3cccc(NC(C)=O)c3C2=O)ccc1OC (single isomer, unassigned; (+)) [Apremilast, (+)-2-[1-(3-ethoxy-4-methoxyphenyl)-2-methylsulfonylethyl]-4-acetylaminoisoindoline-1,3-dione] | −11.5 ± 9.5% | −16.7 ± 17.6% | 2.0 ± 0.4 | 6.9 ± 0.7 | 12% | 17% | −32.8 ± 16.7% | −57.1 ± 21.8% | 1.2 ± 0.6 | 4.1 ± 1.0 | 32.8% |  |  |  |  |  |
| Nc1ccc(O)c(C(=O)O)c1 [Mesalamine] |  |  |  |  |  |  |  |  |  |  |  | −40.2 ± 5.0% | 39.3 ± 11.0% | 6.3 ± 0.2 cm | 3.1 ± 0.3 | 40% |
| CO[C@H]1/C=C/O[C@@]2(C)Oc3c(C)c(O)c4c(O)c(c5c(nc6cc(C)ccn65)c4c3C2=O)NC(=O)/C(C)=C\C=C\[C@H](C)[C@H](O)[C@@H](C)[C@@H](O)[C@@H](C)[C@H](OC(C)=O)[C@@H]1C [Rifaximin] | −17.9 ± 11.2% | −16.7 ± 21.5% | 2.0 ± 0.5 | 6.4 ± 0.9 | 18% | 17% | −3.3 ± 11.8% | −39.3 ± 16.9% | 1.7 ± 0.5 | 5.9 ± 0.7 | didn't show any improvement |  |  |  |  |  |
